In BindingDB's records for doi:10.1021/ml400370w (The Scripps Research Institute, 2014):

experiment: Antagonist activity against CCR5 receptor in human TZM-bl cells assessed as inhibition of HIV-1 JR-FL-induced cell-cell fusion between viral envelope protein expressing human HEK293 cells to TZM-bl cells after 48 hrs by luciferase reporter gene assay

| Compound | IC50 [nM] |
| --- | --- |
| Cc1nnc(CCCCCCCCCCn2cc(COCCOCCOCCOCCOCc3ccc(C(=O)NCCCNC(=O)OC(C)(C)C)cc3)nn2)n1C1CC2CCC(C1)N2CC[C@H](NC(=O)C1CCC(F)(F)CC1)c1ccccc1 (stereo partly specified) | 3 |
| Cc1nnc(CCCCCCCCCCn2cc(COCCOCCOCCOCCOCc3ccc(C(=O)N4CCC4=O)cc3)nn2)n1C1CC2CCC(C1)N2CC[C@H](NC(=O)C1CCC(F)(F)CC1)c1ccccc1 (stereo partly specified) | 2.6 |
| Cc1nnc(C(C)C)n1C1CC2CCC(C1)N2CC[C@H](NC(=O)CCCCCCCCCCn1cc(COCCOCCOCCOCCOCc2ccc(C(=O)N3CCC3=O)cc2)nn1)c1ccccc1 (stereo partly specified) | 27 |
| Cc1nnc(CCCCCCCCCCN=[N+]=[N-])n1C1CC2CCC(C1)N2CC[C@H](NC(=O)C1CCC(F)(F)CC1)c1ccccc1 (stereo partly specified) | 0.96 |
| Cc1nnc(C(C)C)n1C1CC2CCC(C1)N2CC[C@H](NC(=O)COCCOCCOCCN=[N+]=[N-])c1ccccc1 (stereo partly specified) | > 1000 |
| Cc1nnc(C(C)C)n1C1CC2CCC(C1)N2CC[C@H](NC(=O)CCCCCCCCCCN=[N+]=[N-])c1ccccc1 (stereo partly specified) | 360 |
